Patent publication US7932261B2, “Macrocycle derivatives useful as inhibitors of β-secretase (BACE)” (Janssen Pharmaceutica NV, priority 2006, dated 2011)

What was measured:
[1] = target: T1, β-secretase (BACE) (Homo sapiens, UniProt P56817); experiment: in vitro BACE Assay, Ki (Example 14); assay type: biochemical
T1 construct: purchased Panvera
Experimental: (§1) The following assay buffers were prepared and used in this assay: (1) enzyme assay buffer (0.05 M sodium acetate, pH5, 0.1% PEG8000 (w/v)), (2) substrate assay buffer (0.05 M sodium acetate, pH5), and (3) compound vehicle (30% DMSO in 50 mM HEPES, pH 7.4).
(§2) The FS1-substrate stock solution was prepared in DMSO as a 10 mg/mL solution. The FS1-substrate working solution was prepared by diluting the 10 mg/mL stock solution with substrate assay buffer to a final concentration of 300 μg/mL. The β-secretase (BACE) working solution was prepared by diluting a 0.83 mg/mL BACE stock solution with enzyme assay buffer to a final concentration of 4 μg/mL.
Test compounds were dissolved in DMSO at 10 mM.
(§3) The procedure for this assay was as follows: 15 μL of BACE working solution was pipetted into each well of a 96-well plate. To each well was then pipetted 2 μL of test compound at the selected concentration. Test compound and BACE were then mixed with a pipettor and incubated for 20 min at room temperature. To each well was then added 10 μL of the FS1 substrate working solution.
(§4) The procedure for the positive control was as follows: 15 μL of BACE working solution was pipetted into each well to be used as a positive control. To each well was then pipetted 2 μL of vehicle. Vehicle and BACE were then mixed with a pipettor and incubated for 20 min at room temperature. To each well was then added 10 μL of the FS1 substrate working solution.
For test compounds, Ki inhibition was determined as follows: For each compound concentration and positive control, rate of cleavage of substrate (Vi, where i=compound concentration in μM) was determined as Δ Fluorescence/Δ time (min). Cleavage rates (Vi) were plotted as a function of inhibitor concentration in μM [I]. The Ki was then determined by fitting the following equation to the graph of [I] vs. Vi Y=aVmax/(50+24*(1+X/Ki)),

[2] = target: T1, β-secretase (BACE); experiment: in vitro BACE FS1 % Inhibition Assay (Example 13); assay type: biochemical; conditions: FS1 substrate, pH 5; for inhibition at 0.3 µM: read-out: % Inhibition (Example 13) @ 0.3 μM, 0.3 μM compound; for inhibition at 1 µM: read-out: % Inhibition (Example 13) @ 1 μM, 1 μM compound; for inhibition at 3 µM: read-out: % Inhibition (Example 13) @ 3 μM, 3 μM compound
Experimental: as §1
as §2, with “α-secretase” for “β-secretase”
Test compounds were dissolved in DMSO to 10 mM.
as §3, with “The screening” for “The”, “10 µL” for “10 μL”, “solution. The plates were then incubated for 1 hour at room temperature.” for “solution.”
The procedure for the blank (negative control) was as follows. 15 μL of assay buffer was pipetted into each well to be used as a blank control. To each well was then added 2 μL of vehicle and 10 μL of FS1-substrate working solution. The plates were then incubated for 1 hour at room temperature.
as §4, with “solution. The plates were then incubated for 1 hour at room temperature.” for “solution.”
For test compounds, % inhibition was determined at each concentration as follows: […]

T1 sequence (P56817 46-501): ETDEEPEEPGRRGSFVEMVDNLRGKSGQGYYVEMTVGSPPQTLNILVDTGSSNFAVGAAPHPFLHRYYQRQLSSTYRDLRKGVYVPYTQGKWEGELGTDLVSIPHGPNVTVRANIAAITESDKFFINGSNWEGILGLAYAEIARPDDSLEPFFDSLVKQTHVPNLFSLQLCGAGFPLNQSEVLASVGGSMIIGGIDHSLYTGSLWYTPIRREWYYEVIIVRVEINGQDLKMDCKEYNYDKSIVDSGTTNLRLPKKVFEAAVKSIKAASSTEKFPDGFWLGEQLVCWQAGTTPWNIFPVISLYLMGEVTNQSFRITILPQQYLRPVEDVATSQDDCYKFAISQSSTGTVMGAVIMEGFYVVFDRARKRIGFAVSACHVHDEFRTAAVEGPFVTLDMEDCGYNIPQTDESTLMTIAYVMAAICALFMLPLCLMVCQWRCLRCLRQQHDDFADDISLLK

Row | SMILES | Ki [1] | inhibition at 0.3 µM [2] | inhibition at 1 µM [2] | inhibition at 3 µM [2]
1 | CCOC(=O)C1CCC(N2CCc3cccc(c3)Oc3ccc4c(c3)CN(C(N)=N4)C(C(C)C)CCC2=O)CC1 (centres unmarked) [Compound 22] | 750 nM | 25% | 48% | 83%
2 | CC(C)[C@@H]1CCC(=O)N([C@H]2CC[C@H](C(=O)O)CC2)CCc2cccc(c2)Oc2ccc3c(c2)CN1C(N)=N3 [Compound 24] | 420 nM | 27% | 43% | 77%
